The values that follow come from ChEMBL document CHEMBL4406842, “Synthesis and in vitro biological evaluation of novel derivatives of Flexicaulin A condensation with amino acid trifluoroacetate” (Eur J Med Chem, 2019).

SMILES strings stand for the structures. Calls of active or inactive are those of the source. No cut-off for these calls is given here.

Data set [1] relates to TE-1. In words: Antiproliferative activity against human TE1 cells assessed as reduction in cell viability incubated for 72 hrs by SRB assay. The data set is classed as functional, cell-based. The conditions noted are these: for IC50: TE-1, 72 h.
Data set [2] relates to MCF7. Nature of the data set: Antiproliferative activity against human MCF7 cells assessed as reduction in cell viability incubated for 72 hrs by SRB assay. It is filed as functional, cell-based. The conditions noted are these: MCF7, 72 h. Background: In SRB staining, fixed cells bind dye roughly in proportion to their protein.
The subject of data set [3] is A549. In words: Antiproliferative activity against human A549 cells assessed as reduction in cell viability incubated for 72 hrs by SRB assay. The conditions noted are these: A549, 72 h. It is filed as functional, cell-based.
Data set [4] relates to MGC-803. Nature of the data set: Antiproliferative activity against human MGC803 cells assessed as reduction in cell viability incubated for 72 hrs by SRB assay. The data set is classed as functional, cell-based. The conditions noted are these: MGC-803, 72 h.
Data set [5] deals with TE-1. Nature of the data set: Inhibition of colony formation in human TE1 cells at 1 umol/l incubated for 24 hrs supplemented with fresh medium and measured after 7 days by crystal violet staining based assay relative to control. The data set is classed as functional.
The test system of data set [6] is TE-1. In words: Inhibition of colony formation in human TE1 cells incubated for 24 hrs supplemented with fresh medium and measured after 7 days by crystal violet staining based assay. It is filed as functional, cell-based.
In data set [7] the test system is TE-1. In words: Induction of apoptosis in human TE1 cells assessed as early apoptotic cells at 0.75 umol/L incubated for 48 hrs by annexin V-FITC and propidium iodide staining based flow cytometry (reference value: 0.9 %). The data set is classed as functional. A general note: In flow cytometry, cells or beads pass a laser one at a time.
The test system of data set [8] is TE-1. In words: Induction of apoptosis in human TE1 cells assessed as late apoptotic cells at 0.75 umol/L incubated for 48 hrs by annexin V-FITC and propidium iodide staining based flow cytometry (reference value: 2.8 %). It is filed as functional.
The test system of data set [9] is TE-1. Nature of the data set: Induction of apoptosis in human TE1 cells assessed as early apoptotic cells at 1.5 umol/L incubated for 48 hrs by annexin V-FITC and propidium iodide staining based flow cytometry (reference value: 0.9 %). The data set is classed as functional.
Data set [10] relates to TE-1. Nature of the data set: Induction of apoptosis in human TE1 cells assessed as late apoptotic cells at 1.5 umol/L incubated for 48 hrs by annexin V-FITC and propidium iodide staining based flow cytometry (reference value: 2.8 %). It is filed as functional.
The subject of data set [11] is TE-1. In words: Induction of apoptosis in human TE1 cells assessed as early apoptotic cells at 3 umol/L incubated for 48 hrs by annexin V-FITC and propidium iodide staining based flow cytometry (reference value: 0.9 %). The data set is classed as functional.
In data set [12] the test system is TE-1. Nature of the data set: Induction of apoptosis in human TE1 cells assessed as late apoptotic cells at 3 umol/L incubated for 48 hrs by annexin V-FITC and propidium iodide staining based flow cytometry (reference value: 2.8 %). The data set is classed as functional.
Data set [13] deals with TE-1. Nature of the data set: Induction of ROS production in human TE1 cells at 0.75 umol/L incubated for 48 hrs by DCFH-DA staining based flow cytometry (reference value: 2.4 %). It is filed as functional.
The subject of data set [14] is TE-1. Nature of the data set: Induction of ROS production in human TE1 cells at 1.5 umol/L incubated for 48 hrs by DCFH-DA staining based flow cytometry (reference value: 2.4 %). It is filed as functional.
The test system of data set [15] is TE-1. In words: Induction of ROS production in human TE1 cells at 3 umol/L incubated for 48 hrs by DCFH-DA staining based flow cytometry (reference value: 2.4 %). The data set is classed as functional.
For data set [16], the species on record is Homo sapiens. Nature of the data set: Activation of SAPK/JNK signalling pathway in human TE1 cells assessed as increase in ASK1 phosphorylation at 1.5 and 3 umol/L incubated for 48 hrs by Western blot analysis. The data set is classed as cell-based. A general note: Immunoblotting shows a protein as a band on a membrane.
For data set [17], the species on record is Homo sapiens. Nature of the data set: Activation of SAPK/JNK signalling pathway in human TE1 cells assessed as increase in MKK4 phosphorylation at 0.75 to 3 umol/L incubated for 48 hrs by Western blot analysis. It is filed as cell-based.
The species named for data set [18] is Homo sapiens. In words: Activation of SAPK/JNK signalling pathway in human TE1 cells assessed as increase in JNK phosphorylation at 0.75 to 3 umol/L incubated for 48 hrs by Western blot analysis. The data set is classed as cell-based.
Data set [19] deals with TE-1. Nature of the data set: Induction of apoptosis in human TE1 cells assessed as increase in Bax expression at 0.75 to 3 umol/L incubated for 48 hrs by Western blot analysis. It is filed as functional, cell-based.
The test system of data set [20] is TE-1. Nature of the data set: Induction of apoptosis in human TE1 cells assessed as decrease in Bcl2 expression at 0.75 to 3 umol/L incubated for 48 hrs by Western blot analysis. The data set is classed as functional, cell-based.
Data set [21] has as its system TE-1. In words: Induction of apoptosis in human TE1 cells assessed as increase in Bax-Bcl2 ratio at 0.75 to 3 umol/L incubated for 48 hrs by Western blot analysis. It is filed as functional, cell-based.
Data set [22] relates to TE-1. Nature of the data set: Induction of apoptosis in human TE1 cells assessed as increase in cleaved caspase-3 level at 0.75 to 3 umol/L incubated for 48 hrs by Western blot analysis. The data set is classed as functional, cell-based.
Data set [23] has as its system TE-1. Nature of the data set: Induction of apoptosis in human TE1 cells assessed as increase in cleaved caspase-9 level at 0.75 to 3 umol/L incubated for 48 hrs by Western blot analysis. It is filed as functional, cell-based.
Data set [24] deals with TE-1. Nature of the data set: Induction of apoptosis in human TE1 cells assessed as increase in cleaved PARP level at 0.75 to 3 umol/L incubated for 48 hrs by Western blot analysis. It is filed as functional, cell-based.
Data set [25] has as its system GES1. In words: Cytotoxicity against human GES-1 cells assessed as reduction in cell viability by SRB assay. It is filed as cell-based.
The nature of data set [26]: Solubility of compound in water. It is filed as physicochemical. The conditions noted are these: buffer.
The test system of data set [27] is TE-1. In words: Induction of apoptosis in human TE1 cells assessed as increase in Bad protein level at 0.75 to 3 umol/L incubated for 48 hrs by Western blot analysis. It is filed as functional, cell-based.
Data set [28] relates to TE-1. In words: Induction of apoptosis in human TE1 cells assessed as increase in Bak protein level at 0.75 to 3 umol/L incubated for 48 hrs by Western blot analysis. The data set is classed as functional, cell-based.
In data set [29] the test system is TE-1. In words: Induction of apoptosis in human TE1 cells assessed as increase in NOXA protein level at 0.75 to 3 umol/L incubated for 48 hrs by Western blot analysis. The data set is classed as functional, cell-based.

For `C=C1C(=O)[C@]23[C@H](OC(=O)[C@H](Cc4ccccc4)NC)[C@H]1C[C@H](O)[C@H]2[C@]1(COC(C)=O)CCCC(C)(C)[C@H]1C[C@H]3OC.O=C(O)C(F)(F)F`, the inhibition entry in [1] and in [6] was “Dose-dependent effect” each time. Besides, the IC50 (usually the concentration needed to halve the response being measured) in data set [1] came out at 0.75 µM; in data set [2], 0.89 µM; in [3], 1.2 µM; in [4], 1.5 µM. Also, 1 µM produced 100% inhibition in data set [5]. In addition, the Activity in data set [7] is reported as 2.8%; in data set [8] it was 5.1%; in data set [9] it was 5%; in data set [10] it was 12%; in data set [11], 8.7%; in [12], 30.7%. Besides, the Activity in data set [13] was 10.4%; in data set [14], 36.4%; in [15] it was 73.1%; in data set [25] it was “Tde and Dose-dependent effect”. For the same compound, the result in data set [16], in data set [17], in data set [18], in data set [19], in data set [20] and in data set [21] was Active. Moreover, the outcome in [22], in data set [23], in data set [24], in data set [27], in data set [28] and in [29] was Active. In addition, the solubility result in [26] is on record as “Soluble”.
Regarding `C=C1C(=O)[C@]23[C@H](OC(=O)[C@H](C(C)C)N(C)C(=O)OC(C)(C)C)[C@H]1C[C@H](O)[C@H]2[C@]1(COC(C)=O)CCCC(C)(C)[C@H]1C[C@H]3OC`, the IC50 in data set [1] came out at 5.41 µM; in data set [2], 7.1 µM; in [3], 9.5 µM; in data set [4], 5.47 µM. The solubility entry in [26] was “Insoluble”.
